Where “and” joins values, the source holds several entries; their conditions need not be identical. Identical values can stand only once.
What was measured:
[1] = system: Brassica rapa subsp. oleifera; experiment: Herbicidal activity against two to three-leaf stage Brassica rapa subsp. oleifera assessed as inhibition of plant growth at 150 g/ha in greenhouse by postemergence herbicidal activity assay; format: functional; conditions: post-emergence, read-out: GI
Eclipta prostrata [2] = experiment: Herbicidal activity against two to three-leaf stage Eclipta prostrata assessed as inhibition of plant growth at 450 g/ha in greenhouse by post-emergence herbicidal activity assay; format: functional; conditions: read-out: GI
Eclipta prostrata [3] = experiment: Herbicidal activity against two to three-leaf stage Eclipta prostrata assessed as inhibition of plant growth at 150 g/ha in greenhouse by post-emergence herbicidal activity assay; format: functional; conditions: read-out: GI
Abutilon theophrasti [4] = experiment: Herbicidal activity against two to three-leaf stage Abutilon theophrasti (velvetleaf) assessed as inhibition of plant growth at 450 g/ha in greenhouse by post-emergence herbicidal activity assay; format: functional; conditions: read-out: GI
[5] = system: Brassica rapa subsp. oleifera; experiment: Herbicidal activity against two to three-leaf stage Brassica rapa subsp. oleifera assessed as inhibition of plant growth at 450 g/ha in greenhouse by postemergence herbicidal activity assay; format: functional; conditions: post-emergence, read-out: GI
Amaranthus retroflexus [6] = experiment: Herbicidal activity against 2 to 3 leaf stage Amaranthus retroflexus assessed as inhibition of plant growth at 450 g/ha in greenhouse by postemergence herbicidal activity assay; format: functional; conditions: post-emergence, read-out: GI
Amaranthus retroflexus [7] = experiment: Herbicidal activity against 2 to 3 leaf stage Amaranthus retroflexus assessed as inhibition of plant growth at 150 g/ha in greenhouse by postemergence herbicidal activity assay; format: functional; conditions: post-emergence, read-out: GI
Abutilon theophrasti [8] = experiment: Herbicidal activity against two to three-leaf stage Abutilon theophrasti (velvetleaf) assessed as inhibition of plant growth at 150 g/ha in greenhouse by post-emergence herbicidal activity assay; format: functional; conditions: read-out: GI
[9] = Inhibition of Oryza sativa (rice) PDHc by spectrophotometric assay
Oryza sativa = experiment: Herbicidal activity against two to three-leaf stage Oryza sativa (rice) assessed as inhibition of plant growth at 450 g/ha in greenhouse by postemergence herbicidal activity assay; format: organism-based; conditions: in vivo, other
Pisum sativum = experiment: Herbicidal activity against 2 to 3 leaf stage Pisum sativum assessed as inhibition of plant growth at 450 g/ha in greenhouse by postemergence herbicidal activity assay; format: functional; conditions: Lathyrus oleraceus, post-emergence; read-out: GI
Brassica juncea = experiment: Herbicidal activity against two to three-leaf stage Brassica juncea assessed as inhibition of plant growth at 450 g/ha in greenhouse by post-emergence herbicidal activity assay; format: functional; conditions: read-out: GI
Echinochloa crus-galli = experiment: Herbicidal activity against 2 to 3 leaf stage Echinochloa crus-galli (barnyard grass) assessed as inhibition of plant growth at 450 g/ha in greenhouse by postemergence herbicidal activity assay; format: functional; conditions: for inhibition of growth at 450 g/ha: Echinochloa crus-galli, post-emergence, read-out: GI
[10] = biological target: T1, Pyruvate dehydrogenase complex (Pisum sativum, UniProt P52902+P52904); experiment: Inhibition of Pisum sativum (pea) PDHc by spectrophotometric assay; format: protein-complex assay, Lathyrus oleraceus
T1 sequence (P52902 whole entry): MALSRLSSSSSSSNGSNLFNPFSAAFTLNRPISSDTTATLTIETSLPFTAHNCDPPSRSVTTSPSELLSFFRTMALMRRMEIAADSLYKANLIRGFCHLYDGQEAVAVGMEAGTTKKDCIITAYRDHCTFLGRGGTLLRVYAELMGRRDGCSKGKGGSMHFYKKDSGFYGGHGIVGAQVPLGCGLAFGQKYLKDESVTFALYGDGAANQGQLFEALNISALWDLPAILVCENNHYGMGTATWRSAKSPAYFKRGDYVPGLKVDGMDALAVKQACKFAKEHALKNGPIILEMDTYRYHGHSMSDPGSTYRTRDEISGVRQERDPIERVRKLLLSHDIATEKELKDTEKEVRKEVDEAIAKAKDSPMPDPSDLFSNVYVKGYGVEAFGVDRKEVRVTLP
T1 sequence (P52904 whole entry): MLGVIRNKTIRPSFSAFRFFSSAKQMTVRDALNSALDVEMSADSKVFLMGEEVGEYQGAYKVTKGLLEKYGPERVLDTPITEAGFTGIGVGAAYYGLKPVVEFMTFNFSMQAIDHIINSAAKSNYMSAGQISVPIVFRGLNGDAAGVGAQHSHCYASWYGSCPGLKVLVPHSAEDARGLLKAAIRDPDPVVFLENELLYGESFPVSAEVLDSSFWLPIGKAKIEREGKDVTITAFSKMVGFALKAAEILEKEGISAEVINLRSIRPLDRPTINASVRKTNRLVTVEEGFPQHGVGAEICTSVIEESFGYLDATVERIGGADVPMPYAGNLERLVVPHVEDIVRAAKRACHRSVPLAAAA

[11] = system: Brassica rapa subsp. oleifera; experiment: Herbicidal activity against Brassica rapa subsp. oleifera assessed as inhibition of rape root growth; format: functional, organism-based
[12] = system: Brassica rapa subsp. oleifera; experiment: Herbicidal activity against Brassica rapa subsp. oleifera assessed as inhibition of rape root growth at 450 g/ha by pre-emergence herbicidal activity assay; format: functional; conditions: read-out: GI
[13] = system: Brassica rapa subsp. oleifera; experiment: Herbicidal activity against Brassica rapa subsp. oleifera assessed as inhibition of rape root growth at 450 g/ha by postemergence herbicidal activity assay; format: functional; conditions: post-emergence, read-out: GI

| Compound | inhibition of growth at 150 g/ha [1] | inhibition of growth at 450 g/ha (Eclipta prostrata [2]) | inhibition of growth at 150 g/ha (Eclipta prostrata [3]) | inhibition of growth at 450 g/ha (Abutilon theophrasti [4]) | inhibition of growth at 450 g/ha [5] | inhibition of growth at 450 g/ha (Amaranthus retroflexus [6]) | inhibition of growth at 150 g/ha (Amaranthus retroflexus [7]) | inhibition of growth at 150 g/ha (Abutilon theophrasti [8]) | IC50 [9] | growth inhibition (GI) (Oryza sativa) | inhibition of growth at 450 g/ha (Pisum sativum) | inhibition of growth at 450 g/ha (Brassica juncea) | inhibition of growth at 450 g/ha (Echinochloa crus-galli) | IC50 [10] | IC50 [11] | inhibition of growth at 450 g/ha [12] | inhibition of growth at 450 g/ha [13] | growth inhibition (GI) (Echinochloa crus-galli) |
| --- | --- | --- | --- | --- | --- | --- | --- | --- | --- | --- | --- | --- | --- | --- | --- | --- | --- | --- |
| COP(=O)(OC)C(OC(=O)COc1ccc(Cl)cc1)c1cccs1 (stereo not given) | 70% | 30% | 70% | 85% | 90% | 80% | 70% | 70% | – | – | – | – | – | – | – | – | – | – |
| COP(=O)(OC)C(OC(=O)COc1ccc(Cl)c(C)c1)c1cccs1 (stereo not given) | 0% | 70% | 50% | 60% | 60% | 60% | 50% | 0% | – | – | – | – | – | – | – | – | – | – |
| COP(=O)([O-])COC(=O)COc1ccc(Cl)cc1Cl.[Na+] | – | – | – | – | – | 92% | – | – | 29.1 µM | 12% | 52.5% | 93% | 10% | – | – | – | – | – |
| CCC(OC(=O)COc1ccc(Cl)cc1Cl)P(=O)([O-])OC.[Na+] (stereo not given) | – | – | – | – | – | 97% | – | – | 18.9 µM | 27% | 90% | 94.5% | 30% | – | – | – | – | – |
| CCCC(OC(=O)COc1ccc(Cl)cc1Cl)P(=O)([O-])OC.[Na+] (stereo not given) | – | – | – | – | – | 97% | – | – | 3.26 µM | 22% | 77.5% | 96% | 45% | – | – | – | – | – |
| COP(=O)([O-])C(C)OC(=O)COc1ccc(Cl)cc1Cl.[Na+] (stereo not given) | – | – | – | – | – | 98% | – | – | 0.29 µM | 27% | 71.5% | 100% | 50% | – | – | – | – | – |
| COP(=O)(OC)C(OC(=O)COc1cccc(C)c1C)c1cccs1 (stereo not given) | 0% | 70% | 0% | 0% | 0% | 40% | 40% | 0% | – | – | – | – | – | – | – | – | – | – |
| COP(=O)(OC)C(OC(=O)COc1ccc(Br)cc1)c1cccs1 (stereo not given) | 70% | 60% | 60% | 70% | 75% | 60% | 50% | 50% | – | – | – | – | – | – | – | – | – | – |
| COP(=O)(OC)C(OC(=O)COc1ccccc1Cl)c1cccs1 (stereo not given) | 0% | 85% | 0% | 40% | 30% | 50% | 0% | 0% | – | – | – | – | – | – | – | – | – | – |
| COP(=O)(OC)C(OC(=O)COc1cccc(C(F)(F)F)c1)c1ccccn1 (stereo not given) | – | – | – | – | – | 77.5% | – | – | – | 0% | 0% | 60% | 0% | > 2300 µM | – | – | – | – |
| COP(=O)(OC)C(O)c1ccco1 (stereo not given) | – | – | – | – | – | – | – | – | – | – | – | – | – | – | > 4670 µM | 25% | 20% | – |
| COP(=O)(OC)C(=O)c1ccco1 | – | – | – | – | – | – | – | – | – | – | – | – | – | – | 237 µM | 56% | 50% | – |
| COP(=O)(O)C(O)c1ccco1 (stereo not given) | – | – | – | – | – | 0% | – | – | – | – | 0% | – | 17.5% | > 4670 µM | > 4670 µM | 23% | 20% | – |
| COP(=O)(O)C(=O)c1ccco1 | – | – | – | – | – | 25% | – | – | – | – | 35% | – | 25% | 389 µM | 3240 µM | 20% | 30% | – |
| O=C(O)COc1ccc(Cl)cc1Cl [2,4-DICHLOROPHENOXYACETIC ACID] | 92.5% | – | 90% | – | – | 100% | 92% | 93% | – | – | 97.5% | 100% | 35% | > 4530 µM | 0.0556 µM | 98% | 90% | – |
| COP(=O)(OC)C(C)OC(=O)COc1ccc(Cl)cc1Cl (stereo not given) [CLACYFOS] | 92% | 0% | 90% | 100% | 100% | 100% | 91% | 95% | 867 µM | 0% | 97.5% | 100% | – | – | 0.0344 µM | 96% | 98% | 35% and 100% |
| COP(=O)(OC)C(C)O (stereo not given) [DIMETHYL 1-HYDROXYETHYLPHOSPHONATE] | – | – | – | – | – | – | – | – | – | – | – | – | – | – | 2400 µM | 36% | 30% | – |
| COP(=O)(OC)C(C)=O [DIMETHYL ACETYLPHOSPHONATE] | – | – | – | – | – | – | – | – | – | – | – | – | – | – | 1880 µM | 34% | 45% | – |
| COP(=O)(O)C(C)=O [SODIUM METHYL ACETYLPHOSPHONATE] | – | – | – | – | – | – | – | – | – | – | – | – | – | 70 µM | – | – | – | – |

— ChEMBL document CHEMBL3044788, “α-(Substituted-phenoxyacetoxy)-α-heterocyclylmethylphosphonates: synthesis, herbicidal activity, inhibition on pyruvate dehydrogenase complex (PDHc), and application as postemergent herbicide against broadleaf weeds” (J Agric Food Chem, 2013)
